Test system: Ramos cells
Assay: Label-free quantitative proteomics in Ramos cells
Type: cell-based, Homo sapiens
Conditions: 24 h; for Difference for 50 nM, C11orf98 / Difference for 100 nM, C11orf98: protein C11orf98 (E9PRG8); for Difference for 50 nM, MED19 / Difference for 100 nM, MED19: protein MED19 (A0JLT2); for Difference for 50 nM, MIF4GD / Difference for 100 nM, MIF4GD: protein MIF4GD (A9UHW6); for Difference for 50 nM, MAP1LC3B;MAP1LC3B2;MAP1LC3A / Difference for 100 nM, MAP1LC3B;MAP1LC3B2;MAP1LC3A: proteins MAP1LC3B;MAP1LC3B2;MAP1LC3A
Procedure: To assess their proteomic selectivity, we incubated the PROTACs at 50 or 100 nM for 24 h with Ramos cells and followed the change in protein abundance via quantitative label-free proteomics (Figure 7, Supporting Figure 6). In agreement with the Western blot analysis, BTK was efficiently degraded by all the PROTACs we tested. […] Ramos cells were incubated with each PROTAC (50 nM) or DMSO in quadruplicates for 24 h and were then subjected to label-free quantitative proteomics analysis. Each graph plots the Log2 fold-change of proteins in the treated samples compared to the DMSO controls (x-axis) vs the −log(p-value) of that comparison in a Student’s t test (y-axis). […]
supplemented with 300 mM imidazole). The His tag was cleaved by the addition of TEV protease with concomitant dialysis overnight into cleavage buffer (50 mM Tris, pH 8.0, 0.5 mM EDTA, 1 mM DTT) at 4°C. The resulting soluble protein was passed ov er Ni -NTA beads to remove the protease and purified further by gel filtration on a HiLoad_16/60_Superdex_75 (GE Healthcare) column equilibrated with 20 mM Tris, pH 8.0, 50 mM NaCl, 1 mM DTT. The pure protein was then flash-frozen in liquid nitrogen and stored at −80°C.
C57BL/6 mice were purchased from Harlan (Rehovot, Israel) and maintained in a pathogen-free facility, experiments were carried on 8-12 weeks old male mice. All exp eriments with mice were approved by the Weizmann Institute Animal Care and Use Committee.
Splenic cells from C57BL/6 mice were isolated by forcing spleen tissue through mesh into PBS containing 2% fetal calf serum and 1 mM EDTA and red blood cells were depleted by lysis buffer. Cells were cultured in 96-well U-b ottom dishes (1x10^6 cells/m L in RPMI 10% […]
nM, 10 nM, 1 nM, 0.1 nM) for 24 hours at 37° C in 5% humidified CO2 incubator. Following a 24 hours incubation, cells were stimulated with anti-IgM overnight (5 µg/mL, Sigma-Aldrich). Subsequently, cells were stained with anti-B220 (clone RA3-6B2, Biolegend) and anti-CD86 (clone GL-1, Biolegend) antibodies for 30 minutes at 4°C. Single cell suspensions were analyzed by a flow cytometer (CytoFlex, Beckman Coulter).
Cells were analyzed by intensity based, label-free mass spectrometry based proteomics.
Sample preparation: 106 Ramos cells were treated in four replicates with either compound or DMSO for 24 hours. Cells were then washed twice by centrifuge at 200 rcf, 4°C for 5 minutes, removing the supernatant and washed with ice cold PBS. Samp les were then centrifuged at 200 rcf, 4°C for 5 minutes, then supernatant was removed and samples were frozen at -80°C.
Samples were dispersed in 75 µl of 50 mM ammonium bicarbonate, and transferred to 1.8 mL glass vials. 75 µl of 10% SDS in 50 mM ammonium bicarbonate were added and the samples were heated to 96° C for 6 minutes. The samples were sonicated thoroughly in a sonication bath until the DNA was sheared as indicated by reduction in viscosity to level enabling easy pipettation. Total protein concentration was estimated using BCA as say and 30 µg from each sample was taken for the experiment. […]
to 60°C for 45 minutes. The samples were cooled to room temperature, and 1/20 volume of […]
200 mM iodoacetamide was added and the reaction was performed in the dark for 30 minutes.
At this point, 1/10 volume of 12% phosphoric acid was added, followed by 6 volume […]
of 90% methanol in 50 mM ammonium bicarbonate. The samples were loaded on S-trap Micro […]
columns (Protify), and washed 3 times with 90% methanol in 50 mM ammonium bicarbonate.
The columns were spun without washing to dry the methanol. Then, 1 µg of trypsin (Promga) […]
in 20 µl of 50 mM ammonium bicarbonate was added to each column, and they were incubated […]
at 47° C for 1. 5 hours. Then, 40 µl of 50 mM ammonium bicarbonate was added and the sample […]
was eluted and another 0. 5 µg of trypsin was added, fo llowed by overnight incubation at 37 ° C.
The columns themselves were further eluted with 40 µl 0.2% formic acid in water, followed […]

[1] = 50 nM, Log2 fold-change vs DMSO
[2] = 100 nM, Log2 fold-change vs DMSO

## Nc1ncnc2c1c(-c1ccc(Oc3ccccc3)cc1)nn2C1CCCN(C(=O)C=CCOCCOCCOCCOCCOCCOc2cccc3c2C(=O)N(C2CCC(=O)NC2=O)C3=O)C1 (stereo not shown) [IR-1]
50 or 100 nM
  effect on off-targets LCK and PLK1: not significantly affected
  off-targets degraded (CSK, LYN, BLK): degraded the known ibrutinib off-targets CSK, LYN, and BLK
[1]
  Difference for 50 nM, C11orf98: -0.4718
  Difference for 50 nM, MED19: 0.1815
  Difference for 50 nM, MIF4GD: -0.2478
  Difference for 50 nM, MAP1LC3B;MAP1LC3B2;MAP1LC3A: 0.1478
[2]
  Difference for 100 nM, C11orf98: 0.1735
  Difference for 100 nM, MED19: -0.5554
  Difference for 100 nM, MIF4GD: -0.02661
  Difference for 100 nM, MAP1LC3B;MAP1LC3B2;MAP1LC3A: 0.3122
Proteins RGPD3;RGPD4, 50 nM, Log2 fold-change vs DMSO
  Difference for 50 nM, RGPD3;RGPD4: 0.0493
Proteins RGPD3;RGPD4, 100 nM, Log2 fold-change vs DMSO
  Difference for 100 nM, RGPD3;RGPD4: 0.2554

## Nc1ncnc2c1c(-c1ccc(Oc3ccccc3)cc1)nn2C1CCCN(C(=O)C=CCCCCOCCOCCOCCOCCOc2cccc3c2C(=O)N(C2CCC(=O)NC2=O)C3=O)C1 (stereo not shown) [IR-2]
50 or 100 nM
  effect on off-targets LCK and PLK1: not significantly affected
  off-targets degraded (CSK, LYN, BLK): degraded the known ibrutinib off-targets CSK, LYN, and BLK
[1]
  Difference for 50 nM, C11orf98: -0.1649
  Difference for 50 nM, MED19: -0.004671
  Difference for 50 nM, MAP1LC3B;MAP1LC3B2;MAP1LC3A: -0.3401
[2]
  Difference for 100 nM, C11orf98: -0.1913
  Difference for 100 nM, MED19: 0.772
  Difference for 100 nM, MAP1LC3B;MAP1LC3B2;MAP1LC3A: -0.09776
Protein POM121C, 50 nM, Log2 fold-change vs DMSO
  Difference for 50 nM, POM121C: 0.7405
Protein POM121C, 100 nM, Log2 fold-change vs DMSO
  Difference for 100 nM, POM121C: 0.8148
Proteins RASA4;RASA4B, 50 nM, Log2 fold-change vs DMSO
  Difference for 50 nM, RASA4;RASA4B: 0.1914
Proteins RASA4;RASA4B, 100 nM, Log2 fold-change vs DMSO
  Difference for 100 nM, RASA4;RASA4B: -0.07223

## CC(C)(C=C(C#N)C(=O)N1CCCC(n2nc(-c3ccc(Oc4ccccc4)cc3)c3c(N)ncnc32)C1)CCCOCCOCCOCCOCCOc1cccc2c1C(=O)N(C1CCC(=O)NC1=O)C2=O (stereo not shown) [RC-3]
50 or 100 nM
  activity against noncovalent off-targets CSK and LYN: no activity
  off-targets degraded (CSK, LYN, BLK): the only significant off-target of RC-3 was BLK
[1]
  Difference for 50 nM, MED19: 0.1151
  Difference for 50 nM, MAP1LC3B;MAP1LC3B2;MAP1LC3A: -0.1457
[2]
  Difference for 100 nM, MED19: 0.03137
  Difference for 100 nM, MAP1LC3B;MAP1LC3B2;MAP1LC3A: 0.000999
Protein SAC3D1 (A6NKF1), 50 nM, Log2 fold-change vs DMSO
  Difference for 50 nM, SAC3D1: -1.386
Protein SAC3D1 (A6NKF1), 100 nM, Log2 fold-change vs DMSO
  Difference for 100 nM, SAC3D1: -0.4129
Protein TRAPPC13 (A5PLN9), 50 nM, Log2 fold-change vs DMSO
  Difference for 50 nM, TRAPPC13: -0.1201
Protein TRAPPC13 (A5PLN9), 100 nM, Log2 fold-change vs DMSO
  Difference for 100 nM, TRAPPC13: -0.2022
Proteins GPR89B;GPR89A, 50 nM, Log2 fold-change vs DMSO
  Difference for 50 nM, GPR89B;GPR89A: -0.3119
Proteins GPR89B;GPR89A, 100 nM, Log2 fold-change vs DMSO
  Difference for 100 nM, GPR89B;GPR89A: -0.8716

## Nc1ncnc2c1c(-c1ccc(Oc3ccccc3)cc1)nn2C1CCCN(C(=O)CCCCCCOCCOCCOCCOCCOc2cccc3c2C(=O)N(C2CCC(=O)NC2=O)C3=O)C1 (stereo not shown) [NC-1]
50 or 100 nM
  BTK degradation (proteomics): highest degradation potency against BTK
  effect on off-targets LCK and PLK1: not significantly affected
  off-targets degraded (CSK, LYN, BLK): degraded the known ibrutinib off-targets CSK, LYN, and BLK
[1]
  Difference for 50 nM, MIF4GD: 0.1494
  Difference for 50 nM, MAP1LC3B;MAP1LC3B2;MAP1LC3A: -0.1034
[2]
  Difference for 100 nM, MIF4GD: 0.1711
  Difference for 100 nM, MAP1LC3B;MAP1LC3B2;MAP1LC3A: 0.1967
Protein NUDT19 (A8MXV4), 50 nM, Log2 fold-change vs DMSO
  Difference for 50 nM, NUDT19: 0.09117
Protein NUDT19 (A8MXV4), 100 nM, Log2 fold-change vs DMSO
  Difference for 100 nM, NUDT19: 0.676
Protein ZC3H12D (A2A288), 50 nM, Log2 fold-change vs DMSO
  Difference for 50 nM, ZC3H12D: -0.03901
Protein ZC3H12D (A2A288), 100 nM, Log2 fold-change vs DMSO
  Difference for 100 nM, ZC3H12D: -0.07076
Proteins SNRPG;SNRPGP15, 50 nM, Log2 fold-change vs DMSO
  Difference for 50 nM, SNRPG;SNRPGP15: -0.1263
Proteins SNRPG;SNRPGP15, 100 nM, Log2 fold-change vs DMSO
  Difference for 100 nM, SNRPG;SNRPGP15: 0.0004592

## N#CC(=CCCCCOCCOCCOCCOCCOc1cccc2c1C(=O)N(C1CCC(=O)NC1=O)C2=O)C(=O)N1CCCC(n2nc(-c3ccc(Oc4ccccc4)cc3)c3c(N)ncnc32)C1 (stereo not shown) [RC-2]
50 or 100 nM
  effect on off-targets LCK and PLK1: not significantly affected
  off-targets degraded (CSK, LYN, BLK): degraded the known ibrutinib off-targets CSK, LYN, and BLK
[1]
  Difference for 50 nM, C11orf98: -0.2599
  Difference for 50 nM, MAP1LC3B;MAP1LC3B2;MAP1LC3A: -0.1598
[2]
  Difference for 100 nM, C11orf98: 0.08889
  Difference for 100 nM, MAP1LC3B;MAP1LC3B2;MAP1LC3A: 0.1213
Protein ESYT2 (A0FGR8), 50 nM, Log2 fold-change vs DMSO
  Difference for 50 nM, ESYT2: 0.001137
Protein ESYT2 (A0FGR8), 100 nM, Log2 fold-change vs DMSO
  Difference for 100 nM, ESYT2: -0.137
Protein HAX1 (O00165), 50 nM, Log2 fold-change vs DMSO
  Difference for 50 nM, HAX1: -0.1673
Protein HAX1 (O00165), 100 nM, Log2 fold-change vs DMSO
  Difference for 100 nM, HAX1: 0.4145
Protein UNC119B (A6NIH7), 50 nM, Log2 fold-change vs DMSO
  Difference for 50 nM, UNC119B: -0.2229
Protein UNC119B (A6NIH7), 100 nM, Log2 fold-change vs DMSO
  Difference for 100 nM, UNC119B: -0.06661
